Results on one compound are retold here after patent US12390472B2 (SUZHOU SINOVENT PHARMACEUTICALS CO., LTD., priority 2018, dated 2025).

One experiment relates to WSU-DLCL2. As to the kind of experiment: Methylated lysine of histone-H3 (H3K27Me3) detection by ELISA, WSU-DLCL2 cells. It counts as cell-based. Conditions: Homo sapiens, WSUDLCL2, 168 h; WSU-DLCL2, 7 days treatment, H3K27Me3 normalized to total histone-3; read-out: IC50 of cell methylation, WSU-DLCL2. The procedure, abridged: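 Cells were treated 7 days with compound (4-fold dilutions, 20 uM-0.009 nM), then lysed hypotonically with NaCl adjusted to ~100 mM. Lysate-coated plates were probed by ELISA for H3K27Me3 and total H3 (TMB, A450). Methylation signal was normalised to total H3 before curve fitting.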

A further experiment deals with EZH2 (wt) (Homo sapiens (Human), UniProt Q15910). Nature of the experiment: Test on EZH2 (wt) inhibitory activity ([3H]-SAM Flashplate). It counts as biochemical.
The next experiment deals with EZH2 (Y641F) (Homo sapiens (Human), UniProt Q15910, Y641F). As to the kind of experiment: Test on EZH2 (Y641F) inhibitory activity. It counts as biochemical.
Experiment [1] has as its system subcutaneous xenograft tumor model of human B lymphocyte Pfeiffer. Nature of the experiment: In vivo efficacy in subcutaneous xenograft tumor model of human B lymphocyte Pfeiffer. Also noted: species or system mouse. The settings on record: SCID Beige mice, 100 mg/kg p.o. QD 21 days, tumor volume 21 days after administration. On the procedure: Human B lymphocyte strain Pfeiffer was cultured in vitro, in a monolayer way, in a RPMI-1640 medium containing 10% fetal bovine serum, 100 U/mL penicillin and 100 μg/mL streptomycin in an incubator at 37° C./5% CO2. Conventional medium refreshment and subculturing were carried out twice a week, and cells in logarithmic growth phase were collected and used for tumor inoculation after being counted.
Female SCID Beige mice, aged 6-8 weeks and weighed 18-22 g were used in the experiment. The experiment started after 7-day adaptive feed.
Each mouse was inoculated subcutaneously with 10×10^6 Pfeiffer cells in a volume of 0.2 mL in the right side of the neck. The cells were suspended with PBS and matrigel (volume ratio 1:1). After the average tumor volume reached 130 mm^3, the mice were divided into groups with 8 mice per group for administration. The administration volume was 10 uL/g and the dose was 100 mg/kg if there's no special labeling ((p.o. administration, QD, continuous administration for 21 days).
Animal body weights were measured twice weekly and animal mortality and side effects within each group were recorded based on the number of animals in the group.
The experimental indices were to investigate whether tumor growth was inhibited or delayed or the tumor was cured. Tumor diameters were measured twice weekly using a vernier caliper. The tumor volume was calculated according to the following formula: V=0.5 a×b^2, where a and b represent the long diameter and short diameter of the tumor, respectively. The tumor growth inhibitions (TGIs) of the compounds were evaluated by T/C (%). The percentage value of T/C (%) is an index for reflecting the tumor growth inhibition, where T and C represent the average tumor volume of the administration group and the control group, respectively, at a certain day.
The tumor growth inhibition rate was calculated according to the following formula: TGI (%)=(1−(Ti−T0)/(Vi−V0))×100, where Ti is the average tumor volume of a certain administration group on a certain day, T0 is the average tumor volume of the administration group at the start of administration, Vi is the average tumor volume of the vehicle control group on a certain day (same day as Ti) and V0 is the average tumor volume of the vehicle control group at the start of administration.
Relative tumor volumes at each time point for each group were statistically analyzed and differences among groups were assessed based on the data. The statistical method used for testing was one-way ANOVA.

Structures are written as SMILES.

EZH2 (Y641F), sequence (Q15910 whole entry Y641F): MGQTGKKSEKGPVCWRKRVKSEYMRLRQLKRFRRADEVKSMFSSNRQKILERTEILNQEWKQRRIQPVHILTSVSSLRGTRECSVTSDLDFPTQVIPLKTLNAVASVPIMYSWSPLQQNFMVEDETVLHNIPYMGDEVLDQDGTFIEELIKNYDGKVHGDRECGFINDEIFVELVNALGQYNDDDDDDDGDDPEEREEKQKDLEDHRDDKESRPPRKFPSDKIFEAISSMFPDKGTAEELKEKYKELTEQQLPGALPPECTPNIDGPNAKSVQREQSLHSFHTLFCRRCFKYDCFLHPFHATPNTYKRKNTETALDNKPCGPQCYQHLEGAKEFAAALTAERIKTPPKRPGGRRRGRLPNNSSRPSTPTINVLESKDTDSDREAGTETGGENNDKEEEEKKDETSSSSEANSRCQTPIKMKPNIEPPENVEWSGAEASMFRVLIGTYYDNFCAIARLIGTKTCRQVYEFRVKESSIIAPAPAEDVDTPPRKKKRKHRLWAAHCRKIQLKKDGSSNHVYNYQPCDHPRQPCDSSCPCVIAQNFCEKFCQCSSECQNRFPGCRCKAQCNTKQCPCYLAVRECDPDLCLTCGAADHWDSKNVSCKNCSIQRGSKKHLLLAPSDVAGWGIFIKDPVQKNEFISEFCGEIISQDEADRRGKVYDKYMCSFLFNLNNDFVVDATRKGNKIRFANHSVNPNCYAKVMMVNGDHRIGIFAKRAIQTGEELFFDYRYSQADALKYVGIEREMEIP
EZH2 (Y641F), sequence (O75530 whole entry partner): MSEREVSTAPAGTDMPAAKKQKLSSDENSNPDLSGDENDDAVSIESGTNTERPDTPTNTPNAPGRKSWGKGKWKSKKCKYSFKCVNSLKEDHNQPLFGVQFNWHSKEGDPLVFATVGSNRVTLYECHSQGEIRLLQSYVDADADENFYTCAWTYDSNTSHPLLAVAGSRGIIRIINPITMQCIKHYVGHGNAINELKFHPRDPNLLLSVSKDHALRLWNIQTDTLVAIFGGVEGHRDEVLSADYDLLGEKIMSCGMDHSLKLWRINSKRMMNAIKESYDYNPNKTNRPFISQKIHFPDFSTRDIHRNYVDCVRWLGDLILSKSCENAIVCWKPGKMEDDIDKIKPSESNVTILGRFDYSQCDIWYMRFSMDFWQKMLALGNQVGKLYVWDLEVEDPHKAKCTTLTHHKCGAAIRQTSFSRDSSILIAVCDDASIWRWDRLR
EZH2 (Y641F), sequence (Q15022 whole entry partner): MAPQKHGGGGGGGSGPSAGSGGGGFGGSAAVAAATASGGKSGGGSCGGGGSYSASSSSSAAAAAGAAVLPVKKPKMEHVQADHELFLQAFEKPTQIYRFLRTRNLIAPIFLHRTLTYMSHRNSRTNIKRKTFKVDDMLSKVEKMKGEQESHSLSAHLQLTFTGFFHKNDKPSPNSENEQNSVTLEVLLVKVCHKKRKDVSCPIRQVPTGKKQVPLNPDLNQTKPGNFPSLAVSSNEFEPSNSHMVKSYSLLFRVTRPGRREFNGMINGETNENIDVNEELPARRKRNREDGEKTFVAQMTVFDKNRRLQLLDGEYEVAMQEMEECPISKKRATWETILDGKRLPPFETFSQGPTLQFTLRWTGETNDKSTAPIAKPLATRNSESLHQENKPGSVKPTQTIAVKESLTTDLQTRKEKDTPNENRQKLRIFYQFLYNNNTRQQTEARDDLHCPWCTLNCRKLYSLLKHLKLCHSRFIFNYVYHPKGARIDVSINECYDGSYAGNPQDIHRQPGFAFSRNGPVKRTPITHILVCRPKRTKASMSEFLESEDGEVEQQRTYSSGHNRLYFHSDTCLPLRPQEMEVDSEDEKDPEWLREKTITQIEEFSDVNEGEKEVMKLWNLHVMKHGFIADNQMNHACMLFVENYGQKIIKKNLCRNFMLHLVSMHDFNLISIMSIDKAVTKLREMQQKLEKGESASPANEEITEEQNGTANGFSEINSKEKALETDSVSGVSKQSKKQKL
EZH2 (wt), sequence (Q15910 whole entry): as the sequence (Q15910 whole entry Y641F) above, with F641Y counted along it
EZH2 (wt), sequence (O75530 whole entry partner): as the sequence (O75530 whole entry partner) above
EZH2 (wt), sequence (Q15022 whole entry partner): as the sequence (Q15022 whole entry partner) above

As to `CCN(c1cc(O[C@H]2C[C@H](N3C[C@@H](C)O[C@@H](C)C3)C2)cc(C(=O)NCc2c(C)cc(C)[nH]c2=O)c1C)C1CCC(F)(F)CC1` [Example 45, 3-((4,4-difluorocyclohexyl)(ethyl)amino)-N-((4,6-dimethyl-2-oxo-1,2-dihydropyridin-3-yl)methyl)-5-(trans-3-(cis-2,6-dimethylmorpholinyl)cyclobutoxy)-2-methylbenzamide], the IC50 in the experiment on WSU-DLCL2 was 50 to 500 nM; on EZH2 (wt), 2.3 nM; at EZH2 (Y641F) it was 3 nM. The compound also yielded a TGI in experiment [1] of 66.20%.
